These results are taken from patent US8569301B2, “6, 6-dioxo-6-thia-1, 4-diaza-naphthalenes as herbicides” (Syngenta Limited, priority 2009, dated 2013).

What all share (format): in vivo
What all share (details): sprayed after 8 days cultivation, evaluated after 13 days, scores from 10 to 0 (10=total damage to plant; 0=no damage to plant)

The test system of test [1] is ECHCG. Description: Example B1 herbicidal action post-emergence, ECHCG. How it is done:
(§1) Seeds of a variety of test species were sown in standard soil in pots. After 8 days cultivation (post-emergence) under controlled conditions in a glasshouse (at 24/16° C., day/night; 14 hours light; 65% humidity), the plants were sprayed with an aqueous spray solution derived from the formulation of the technical active ingredient in acetone/water (50:50) solution containing 0.5% Tween 20 (polyoxyethelyene sorbitan monolaurate, CAS RN 9005-64-5). The test plants were then grown under controlled conditions in a glasshouse (at 24/16° C., day/night; 14 hours light; 65% humidity) and watered twice daily. After 13 days, the test was evaluated and the assessed scores, from 10 to 0, are tabulated in Table B1 (10=total damage to plant; 0=no damage to plant).

The subject of test [2] is IPOHE. Description: Example B1 herbicidal action post-emergence, IPOHE. How it is done:
as §1

Test [3] has as its system SOLNI. Description: Example B1 herbicidal action post-emergence, SOLNI. How it is done:
as §1

Test [4] has as its system SETFA. Description: Example B1 herbicidal action post-emergence, SETFA. How it is done: as §1
The test system of test [5] is AMARE. Description: Example B1 herbicidal action post-emergence, AMARE. As for the experimental part:
as §1

Regarding `C#CCC1c2nccnc2C(O)=C(c2c(Cl)cccc2C(F)(F)F)S1(=O)=O` (racemic) [Compound E2], the “assessed score, application post-emergence, ECHCG” value (“assessed score … ECHCG” below) in test [1] (Rate 1000 g/ha) is recorded as 8. In test [2] (Rate 1000 g/ha), the “assessed score, application post-emergence, IPOHE” value (“assessed score … IPOHE” below) worked out at 8. Further, in test [3] (Rate 1000 g/ha), the “assessed score, application post-emergence, SOLNI” value (“assessed score … SOLNI” below) is 8. The “assessed score, application post-emergence, SETFA” value (“assessed score … SETFA” below) in test [4] (Rate 1000 g/ha) is given as 8. The “assessed score, application post-emergence, AMARE” value (“assessed score … AMARE” below) in test [5] (Rate 1000 g/ha) came out at 10.

Turning to `CC1c2nccnc2C(O)=C(c2c(Cl)cccc2C(F)(F)F)S1(=O)=O` (racemic) [Compound E3], the “assessed score … ECHCG” value in test [1] (Rate 1000 g/ha) came out at 8. In test [2] (Rate 1000 g/ha), the “assessed score … IPOHE” value is 8. For the same compound, the “assessed score … SOLNI” value in test [3] (Rate 1000 g/ha) turned out to be 8. In addition, the “assessed score … SETFA” value in test [4] (Rate 1000 g/ha) is on record as 8. Moreover, the “assessed score … AMARE” value in test [5] (Rate 1000 g/ha) was found to be 9.

For `O=S1(=O)C(c2c(Cl)cccc2C(F)(F)F)=C(O)c2nccnc2C1CC(F)F` (racemic) [Compound E4], in test [1] (Rate 1000 g/ha), the “assessed score … ECHCG” value came out at 6. Moreover, the “assessed score … IPOHE” value in test [2] (Rate 1000 g/ha) amounted to 7. Moreover, the “assessed score … SOLNI” value in test [3] (Rate 1000 g/ha) is 8. In addition, in test [4] (Rate 1000 g/ha), the “assessed score … SETFA” value was found to be 6. The “assessed score … AMARE” value in test [5] (Rate 1000 g/ha) stood at 9.

`CCC1c2nccnc2C(O)=C(c2cc(Cl)ccc2C(F)(F)F)S1(=O)=O` (racemic) [Compound E6]: the “assessed score … ECHCG” value in test [1] (Rate 1000 g/ha) amounted to 5. Besides, the “assessed score … IPOHE” value in test [2] (Rate 1000 g/ha) was found to be 7. The “assessed score … SOLNI” value in test [3] (Rate 1000 g/ha) is on record as 8. In addition, the “assessed score … SETFA” value in test [4] (Rate 1000 g/ha) is listed as 3. Also, the “assessed score … AMARE” value in test [5] (Rate 1000 g/ha) is 8.

Turning to `O=S1(=O)C(c2cc(Cl)ccc2C(F)(F)F)=C(O)c2nccnc2C1CC(F)F` (racemic) [Compound E7], in test [1] (Rate 250 g/ha), the “assessed score … ECHCG” value was determined as 2. The “assessed score … IPOHE” value in test [2] (Rate 250 g/ha) was determined as 7. Further, the “assessed score … SOLNI” value in test [3] (Rate 250 g/ha) came out at 7. Moreover, in test [4] (Rate 250 g/ha), the “assessed score … SETFA” value worked out at 2. Also, in test [5] (Rate 250 g/ha), the “assessed score … AMARE” value is 6.

Regarding `O=S1(=O)Cc2nccnc2C(O)=C1c1c(F)ccc(Cl)c1Cl` [Compound C1, 7-(2,3-dichloro-6-fluoro-phenyl)-6,6-dioxo-5,6-dihydro-6-λ-6-thia-1,4-diaza-naphthalen-8-ol], the “assessed score … ECHCG” value in test [1] (Rate 1000 g/ha) is 7. Further, the “assessed score … IPOHE” value in test [2] (Rate 1000 g/ha) worked out at 8. The “assessed score … SOLNI” value in test [3] (Rate 1000 g/ha) was found to be 8. For the same compound, the “assessed score … SETFA” value in test [4] (Rate 1000 g/ha) stood at 8. Moreover, in test [5] (Rate 1000 g/ha), the “assessed score … AMARE” value is on record as 10.

Consider `O=S1(=O)Cc2nccnc2C(O)=C1c1cc(C(F)(F)F)ccc1Cl` [Compound C2], for which, in test [1] (Rate 1000 g/ha), the “assessed score … ECHCG” value came to 0. The “assessed score … IPOHE” value in test [2] (Rate 1000 g/ha) amounted to 0. The “assessed score … SOLNI” value in test [3] (Rate 1000 g/ha) is recorded as 0. For the same compound, the “assessed score … SETFA” value in test [4] (Rate 1000 g/ha) is reported as 0. Besides, the “assessed score … AMARE” value in test [5] (Rate 1000 g/ha) is given as 0.

Consider `O=S1(=O)Cc2nccnc2C(O)=C1c1cc(Cl)cc(C(F)(F)F)c1` [Compound C3], for which the “assessed score … ECHCG” value in test [1] (Rate 1000 g/ha) is listed as 0. For the same compound, the “assessed score … IPOHE” value in test [2] (Rate 1000 g/ha) is 0. Moreover, the “assessed score … SOLNI” value in test [3] (Rate 1000 g/ha) was 0. Moreover, in test [4] (Rate 1000 g/ha), the “assessed score … SETFA” value was 0. For the same compound, the “assessed score … AMARE” value in test [5] (Rate 1000 g/ha) was found to be 0.

On to `Cc1cccc(F)c1C1=C(O)c2nccnc2CS1(=O)=O` [Compound C4], for which, in test [1] (Rate 1000 g/ha), the “assessed score … ECHCG” value is given as 3. The “assessed score … IPOHE” value in test [2] (Rate 1000 g/ha) was 2. In addition, the “assessed score … SOLNI” value in test [3] (Rate 1000 g/ha) came to 4. Further, the “assessed score … SETFA” value in test [4] (Rate 1000 g/ha) was found to be 5. The “assessed score … AMARE” value in test [5] (Rate 1000 g/ha) came out at 7.

Take `COc1ccc(Cl)c(C2=C(O)c3nccnc3CS2(=O)=O)c1F` [Compound C5]: the “assessed score … ECHCG” value in test [1] (Rate 1000 g/ha) is recorded as 1. In addition, the “assessed score … IPOHE” value in test [2] (Rate 1000 g/ha) came to 3. For the same compound, the “assessed score … SOLNI” value in test [3] (Rate 1000 g/ha) is listed as 4. In addition, in test [4] (Rate 1000 g/ha), the “assessed score … SETFA” value amounted to 4. In addition, in test [5] (Rate 1000 g/ha), the “assessed score … AMARE” value amounted to 3.

In the case of `O=S1(=O)Cc2nccnc2C(O)=C1c1c(F)cccc1C(F)(F)F` [Compound C6], the “assessed score … ECHCG” value in test [1] (Rate 1000 g/ha) was 1. In test [2] (Rate 1000 g/ha), the “assessed score … IPOHE” value was determined as 0. For the same compound, the “assessed score … SOLNI” value in test [3] (Rate 1000 g/ha) is on record as 3. For the same compound, the “assessed score … SETFA” value in test [4] (Rate 1000 g/ha) is 2. For the same compound, the “assessed score … AMARE” value in test [5] (Rate 1000 g/ha) is reported as 4.

On to `O=S1(=O)Cc2nccnc2C(O)=C1c1cc(Cl)ccc1C(F)(F)F` [Compound C7, 7-(5-chloro-2-trifluoromethyl-phenyl)-6,6-dioxo-5,6-dihydro-6-thia-1,4-diaza-naphthalen-8-ol], for which the “assessed score … ECHCG” value in test [1] (Rate 1000 g/ha) worked out at 6. The “assessed score … IPOHE” value in test [2] (Rate 1000 g/ha) was 7. In addition, the “assessed score … SOLNI” value in test [3] (Rate 1000 g/ha) stood at 8. Besides, in test [4] (Rate 1000 g/ha), the “assessed score … SETFA” value is 8. In test [5] (Rate 1000 g/ha), the “assessed score … AMARE” value is 8.
